How the values were obtained:
pigweed = assay: Test C pre-/postemergence herbicide test; assay type: in vivo, Amaranthus retroflexus
Outline: (§1)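 Pre/post spray; non-phytotoxic solvent + surfactant. Post-timing 1–4 leaves, 2–18 cm. Read-out: visual % control vs untreated, day 12–14, greenhouse.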

kochia = assay: Test C pre-/postemergence herbicide test; assay type: in vivo, Kochia scoparia
Outline: as §1

velvetleaf = assay: Test C pre-/postemergence herbicide test; assay type: in vivo, Abutilon theophrasti
Outline: as §1

Surinam grass = assay: Test C pre-/postemergence herbicide test; assay type: in vivo, Urochloa decumbens
Outline: as §1

corn = assay: Test C pre-/postemergence herbicide test; assay type: in vivo, Zea mays
Outline: as §1

ducksalad = assay: Test C flooded paddy test; assay type: in vivo, Heteranthera limosa; conditions: for Plant response rating, Ducksalad: 500 g ai/ha, visual rating after 12 to 14 days
rice = assay: Test C flooded paddy test; assay type: in vivo, Oryza sativa; conditions: for Plant response rating, Rice: 500 g ai/ha, visual rating after 12 to 14 days
Outline: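 Injury scored visually against controls on a 0 (no effect) to 100 (complete control) scale, 12 to 14 days after treatment in greenhouse. Flooded paddy plants treated at 2-leaf stage; postemergence plants at 1- to 4-leaf stage, 2 to 18 cm tall.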

lambsquarters = assay: Test C pre-/postemergence herbicide test; assay type: in vivo, Chenopodium album
Outline: as §1

[1] = Postemergence, 250 g ai/ha, scale 0 to 100, 0 no effect, 100 complete control
[2] = postemergence, 62 g ai/ha, scale 0 to 100
[3] = postemergence, 125 g ai/ha, scale 0 to 100
[4] = 125 g ai/ha, scale 0 to 100 (0 no effect, 100 complete control)
[5] = 250 g ai/ha, scale of 0 to 100, 0 is no effect, 100 is complete control
[6] = scale 0 to 100 (0 no effect, 100 complete control)
[7] = 62 g ai/ha, preemergence, scale 0 to 100
[8] = 500 g ai/ha, scale 0 to 100 (0 no effect, 100 complete control), visual, 12 to 14 days, preemergence
[9] = 250 g ai/ha, scale 0-100, preemergence
[10] = 125 g ai/ha, scale 0 (no effect) to 100 (complete control), visual, 12 to 14 days, preemergence

## CCOC(=O)c1cccc(NC(=O)c2cc(C3(C)CC3)nn2CC)c1 [Compound 295]
pigweed; [1]
  Plant response rating, Pigweed: 95
pigweed; [2]
  Plant response rating, Pigweed: 80
kochia; [1]
  Plant response rating, Kochia: 90
kochia; [3]
  Plant response rating, Kochia: 85
kochia; [2]
  Plant response rating, Kochia: 80
velvetleaf; [1]
  Plant response rating, Velvetleaf: 70
velvetleaf; [3]
  Plant response rating, Velvetleaf: 65
velvetleaf; [2]
  Plant response rating, Velvetleaf: 60
Surinam grass; [1]
  Plant response rating, Surinam Grass: 15
Surinam grass; [3]
  Plant response rating, Surinam Grass: 5
Surinam grass; [2]
  Plant response rating, Surinam Grass: 5
corn; [1]
  Plant response rating, Corn: 15
corn; [3]
  Plant response rating, Corn: 10
corn; [2]
  Plant response rating, Corn: 5
ducksalad; 62 g ai/ha, scale 0 to 100
  Ducksalad plant response rating: 0
ducksalad; [4]
  Ducksalad plant response rating: 0
ducksalad; [5]
  Ducksalad plant response rating: 25
ducksalad; [6]
  Plant response rating, Ducksalad: 30
rice; 62 g ai/ha, scale 0 to 100
  Rice plant response rating: 5
rice; [4]
  Rice plant response rating: 10
rice; [5]
  Rice plant response rating: 40
rice; [6]
  Plant response rating, Rice: 40
lambsquarters; [1]
  Plant response rating, Lambsquarters: 50
lambsquarters; [3]
  Plant response rating, Lambsquarters: 5
lambsquarters; [2]
  Plant response rating, Lambsquarters: 0

## CCc1nn(C(C)C)nc1C(=O)Nc1cccc(C(=S)N(C)C)c1 [Compound 409]
pigweed; [7]
  Plant response rating, Pigweed: 100
pigweed; [8]
  Plant response rating, Pigweed: 100
kochia; 125 g ai/ha, preemergence
  Plant response rating (0 = no effect, 100 = complete control), Kochia: 70
kochia; [9]
  Plant response rating, Kochia: 85
kochia; [8]
  Plant response rating, Kochia: 95
velvetleaf; [7]
  Plant response rating, Velvetleaf: 5
velvetleaf; 125 g ai/ha, preemergence
  Plant response rating (0 = no effect, 100 = complete control), Velvetleaf: 30
velvetleaf; [8]
  Plant response rating, Velvetleaf: 100
Surinam grass; [7]
  Plant response rating, Surinam Grass: 50
Surinam grass; 125 g ai/ha, preemergence
  Plant response rating (0 = no effect, 100 = complete control), Surinam Grass: 85
Surinam grass; [8]
  Plant response rating, Surinam Grass: 95
corn; [7]
  Plant response rating, Corn: 0
corn; 125 g ai/ha, preemergence
  Plant response rating (0 = no effect, 100 = complete control), Corn: 5
corn; [9]
  Plant response rating, Corn: 75
corn; [8]
  Plant response rating, Corn: 80
ducksalad; 62 g ai/ha, scale 0 to 100
  Ducksalad plant response rating: 30
ducksalad; [4]
  Ducksalad plant response rating: 30
ducksalad; [5]
  Ducksalad plant response rating: 80
ducksalad; [6]
  Plant response rating, Ducksalad: 85
rice; 62 g ai/ha, scale 0 to 100
  Rice plant response rating: 20
rice; [4]
  Rice plant response rating: 40
rice; [5]
  Rice plant response rating: 50
rice; [6]
  Plant response rating, Rice: 60
lambsquarters; [7]
  Plant response rating, Lambsquarters: 100
lambsquarters; [9]
  Plant response rating, Lambsquarters: 100
lambsquarters; [8]
  Plant response rating, Lambsquarters: 100

## CCc1nn(C(C)C)nc1C(=O)Nc1cccc(C(=O)N(C)CC)c1 [Compound 386]
pigweed; [7]
  Plant response rating, Pigweed: 100
pigweed; 125 g ai/ha, preemergence
  Plant response rating (0 = no effect, 100 = complete control), Pigweed: 100
pigweed; [9]
  Plant response rating, Pigweed: 100
pigweed; [8]
  Plant response rating, Pigweed: 100
kochia; [7]
  Plant response rating, Kochia: 30
kochia; 125 g ai/ha, preemergence
  Plant response rating (0 = no effect, 100 = complete control), Kochia: 100
kochia; [9]
  Plant response rating, Kochia: 100
kochia; [8]
  Plant response rating, Kochia: 100
velvetleaf; [7]
  Plant response rating, Velvetleaf: 70
velvetleaf; 125 g ai/ha, preemergence
  Plant response rating (0 = no effect, 100 = complete control), Velvetleaf: 100
velvetleaf; [9]
  Plant response rating, Velvetleaf: 100
velvetleaf; [8]
  Plant response rating, Velvetleaf: 100
Surinam grass; [7]
  Plant response rating, Surinam Grass: 80
Surinam grass; 125 g ai/ha, preemergence
  Plant response rating (0 = no effect, 100 = complete control), Surinam Grass: 80
Surinam grass; [9]
  Plant response rating, Surinam Grass: 95
Surinam grass; [8]
  Plant response rating, Surinam Grass: 95
corn; [7]
  Plant response rating, Corn: 10
corn; 125 g ai/ha, preemergence
  Plant response rating (0 = no effect, 100 = complete control), Corn: 60
corn; [9]
  Plant response rating, Corn: 80
corn; [8]
  Plant response rating, Corn: 85
ducksalad; 62 g ai/ha, scale 0 to 100
  Ducksalad plant response rating: 25
ducksalad; [4]
  Ducksalad plant response rating: 60
ducksalad; [5]
  Ducksalad plant response rating: 85
ducksalad; [6]
  Plant response rating, Ducksalad: 85
rice; 62 g ai/ha, scale 0 to 100
  Rice plant response rating: 25
rice; [4]
  Rice plant response rating: 65
rice; [5]
  Rice plant response rating: 70
rice; [6]
  Plant response rating, Rice: 75
lambsquarters; [7]
  Plant response rating, Lambsquarters: 100
lambsquarters; 125 g ai/ha, preemergence
  Plant response rating (0 = no effect, 100 = complete control), Lambsquarters: 100
lambsquarters; [9]
  Plant response rating, Lambsquarters: 100
lambsquarters; [8]
  Plant response rating, Lambsquarters: 100

## CCn1nc(C(C)(C)C)cc1C(=O)Nc1ccc(OC)c(OC)c1 [Compound 298]
pigweed; [7]
  Plant response rating, Pigweed: 100
pigweed; [10]
  Plant response rating, Pigweed: 100
pigweed; [9]
  Plant response rating, Pigweed: 100
pigweed; [8]
  Plant response rating, Pigweed: 100
kochia; [7]
  Plant response rating, Kochia: 80
kochia; [10]
  Plant response rating, Kochia: 95
kochia; [9]
  Plant response rating, Kochia: 100
kochia; [8]
  Plant response rating, Kochia: 100
velvetleaf; [7]
  Plant response rating, Velvetleaf: 60
velvetleaf; [9]
  Plant response rating, Velvetleaf: 100
velvetleaf; [8]
  Plant response rating, Velvetleaf: 100
Surinam grass; [7]
  Plant response rating, Surinam Grass: 5
Surinam grass; [9]
  Plant response rating, Surinam Grass: 40
Surinam grass; [8]
  Plant response rating, Surinam Grass: 70
corn; [7]
  Plant response rating, Corn: 0
corn; [10]
  Plant response rating, Corn: 10
corn; [9]
  Plant response rating, Corn: 15
corn; [8]
  Plant response rating, Corn: 30
ducksalad; 62 g ai/ha, scale 0 to 100
  Ducksalad plant response rating: 35
ducksalad; [4]
  Ducksalad plant response rating: 40
ducksalad; [5]
  Ducksalad plant response rating: 80
ducksalad; [6]
  Plant response rating, Ducksalad: 90
rice; 62 g ai/ha, scale 0 to 100
  Rice plant response rating: 45
rice; [4]
  Rice plant response rating: 60
rice; [5]
  Rice plant response rating: 65
rice; [6]
  Plant response rating, Rice: 75
lambsquarters; [7]
  Plant response rating, Lambsquarters: 100
lambsquarters; [10]
  Plant response rating, Lambsquarters: 100
lambsquarters; [9]
  Plant response rating, Lambsquarters: 100
lambsquarters; [8]
  Plant response rating, Lambsquarters: 100
